In the NIST ThermoML archive (doi:10.1016/j.fluid.2014.09.024):
Numbers after ± are expanded uncertainties.

Key:
[1] = for mass density: 101 kPa, Liquid, Vibrating tube method; for Normal melting temperature: Crystal, visual observation
[2] = refractive index (Na D-line) (dimensionless); conditions: 323.15 K; 101 kPa; Liquid; Standard Abbe refractometry
[3] = refractive index (Na D-line) (dimensionless); xn = mol fraction of the nth substance listed; conditions: 323.15 K, 101 kPa, Liquid, Standard Abbe refractometry
[4] = xn = mol fraction of the nth substance listed; conditions: 323.15 K, 101 kPa, Liquid, Vibrating tube method

COc1ccccc1 [anisole]
[1]
Conditions | mass density [kg/m3]
298.15 K | 989.42 ± 0.11
323.15 K | 965.35 ± 0.11

Conditions | Normal melting temperature [°C] | refractive index
[1] | -37.9 ± 0.4 | –
[2] | – | 1.5012 ± 0.0007

COc1ccccc1 [anisole] + COC(=O)OC
Conditions | mass density, [4] [kg/m3] | refractive index, [3]
x2 = 0 | 965.35 ± 0.11 | 1.5012 ± 0.0007
x2 = 0.05 | 967.83 ± 0.11 | 1.4963 ± 0.0007
x2 = 0.1001 | 970.34 ± 0.11 | 1.4908 ± 0.0007
x2 = 0.2001 | 975.5 ± 0.11 | 1.4795 ± 0.0007
x2 = 0.3 | 980.89 ± 0.11 | 1.4659 ± 0.0007
x2 = 0.4 | 986.63 ± 0.11 | 1.4516 ± 0.0007
x2 = 0.5 | 992.69 ± 0.11 | 1.437 ± 0.0007
x2 = 0.5999 | 999.08 ± 0.11 | 1.4226 ± 0.0007
x2 = 0.7 | 1005.87 ± 0.11 | 1.4087 ± 0.0007
x2 = 0.8 | 1013.1 ± 0.11 | 1.393 ± 0.0007
x2 = 0.9 | 1020.95 ± 0.11 | 1.3754 ± 0.0007
x2 = 0.95 | 1025.2 ± 0.11 | 1.3655 ± 0.0007

COc1ccccc1 [anisole] + Oc1ccccc1
Conditions | mass density, [4] [kg/m3] | refractive index, [3]
x1 = 0.05 | 1044.95 ± 0.25 | 1.535 ± 0.0007
x1 = 0.1001 | 1040.35 ± 0.23 | 1.5333 ± 0.0007
x1 = 0.2 | 1031.27 ± 0.2 | 1.5296 ± 0.0007
x1 = 0.3 | 1022.44 ± 0.17 | 1.5259 ± 0.0007
x1 = 0.4 | 1013.68 ± 0.15 | 1.522 ± 0.0007
x1 = 0.5 | 1005.11 ± 0.14 | 1.5183 ± 0.0007
x1 = 0.6103 | 995.89 ± 0.13 | 1.5144 ± 0.0007
x1 = 0.7 | 988.65 ± 0.12 | 1.5114 ± 0.0007
x1 = 0.8 | 980.8 ± 0.11 | 1.508 ± 0.0007
x1 = 0.9001 | 973.1 ± 0.11 | 1.5047 ± 0.0007
x1 = 0.9498 | 969.31 ± 0.11 | 1.503 ± 0.0007
x1 = 1 | 965.35 ± 0.11 | 1.5012 ± 0.0007

COC(=O)OC [dimethyl carbonate]
[1]
Conditions | mass density [kg/m3]
298.15 K | 1063.26 ± 0.12
323.15 K | 1029.81 ± 0.11

Conditions | Normal melting temperature [°C] | refractive index
[1] | 5.1 ± 0.4 | –
[2] | – | 1.3546 ± 0.0007

COC(=O)OC [dimethyl carbonate] + COc1ccccc1
x1 = 1
Conditions | mass density [kg/m3] | refractive index
[3] | – | 1.3546 ± 0.0007
[4] | 1029.81 ± 0.11 | –

COC(=O)OC [dimethyl carbonate] + Oc1ccccc1
x1 = 1
Conditions | mass density [kg/m3] | refractive index
[3] | – | 1.3546 ± 0.0007
[4] | 1029.81 ± 0.11 | –

Oc1ccccc1 [phenol]
[1]
Conditions | mass density [kg/m3]
313.15 K | 1058.51 ± 0.28
323.15 K | 1049.8 ± 0.27

Conditions | Normal melting temperature [°C] | refractive index
[1] | 41.0 ± 0.4 | –
[2] | – | 1.5375 ± 0.0007

Oc1ccccc1 [phenol] + COC(=O)OC
Conditions | mass density, [4] [kg/m3] | refractive index, [3]
x2 = 0 | 1049.79 ± 0.27 | 1.5375 ± 0.0007
x2 = 0.0469 | 1049.78 ± 0.25 | 1.53 ± 0.0007
x2 = 0.1001 | 1049.78 ± 0.23 | 1.5222 ± 0.0007
x2 = 0.2001 | 1049.38 ± 0.21 | 1.5068 ± 0.0007
x2 = 0.3 | 1048.47 ± 0.18 | 1.4912 ± 0.0007
x2 = 0.3999 | 1047.12 ± 0.16 | 1.479 ± 0.0007
x2 = 0.5 | 1045.31 ± 0.15 | 1.4698 ± 0.0007
x2 = 0.6 | 1043 ± 0.13 | 1.4592 ± 0.0007
x2 = 0.7001 | 1040.26 ± 0.12 | 1.4428 ± 0.0007
x2 = 0.8 | 1037.11 ± 0.12 | 1.4169 ± 0.0007
x2 = 0.9 | 1033.66 ± 0.11 | 1.384 ± 0.0007
x2 = 0.9499 | 1031.81 ± 0.11 | 1.3675 ± 0.0007

Oc1ccccc1 [phenol] + COc1ccccc1
x2 = 0
Conditions | mass density [kg/m3] | refractive index
[3] | – | 1.5375 ± 0.0007
[4] | 1049.8 ± 0.27 | –
